Measured values as given in patent US20250197461A1, “Insect-derived short peptide for improving abscisic acid (ABA) content in cruciferous plant” (Gannan Normal University, priority 2023, published 2025).

Test system: Arabidopsis thaliana
Assay: Phytohormone detection in Arabidopsis thaliana leaves treated with short peptide (LC-MS/MS)
Format: in vivo
Conditions: 0.01 mg/mL; for ABA content / JA content: compared with GFP control group
Method: A synthetic short peptide of GSS1-PI with the corresponding concentration and mass was weighed and dissolved in 0.1% DMSO to obtain a 0.01 mg/mL treatment solution. A wild-type Arabidopsis thaliana plant of about four weeks old was taken, two cotyledons were collected and mechanically damaged to obtain three small holes, 2 μL of the GSS1-PI treatment solution was added dropwise into each small hole, while the control group was a solution of the same concentration prepared by synthesizing an unrelated short peptide GFP group (GFP-28aa: […], SEQ ID NO: 20) of the same length. After 24 h and 48 h of treatment, approximately 0.2 g of Arabidopsis thaliana leaves were collected, and each treatment had three biological replicates. The leaves were quickly placed in liquid nitrogen and stored in a −80° C. ultra-low temperature refrigerator for subsequent phytohormone group detection.
• a. The cryopreserved biological samples were ground with a grinder (30 Hz, 1 min) until they were in a powder form. • b. 50 mg of the ground sample was weighed and added with 10 μL of an internal standard mixed solution with a concentration of 100 ng/ml and 1 mL of an extractant including methanol/water/formic acid (15:4:1, v/v/v), and mixed well. • c. After vortexing for 10 min, a resulting mixture was centrifuged at 4° C. and 12,000 r/min for 5 min, and a resulting supernatant was transferred to a new centrifuge tube for concentration. • d. After concentration, the concentrated solution was reconstituted with 100 μL of 80% methanol/water solution, the reconstituted solution was filtered through a 0.22 μm filter, and the filtrate was placed in a sampling bottle for LC-MS/MS analysis.
The data acquisition instrument system mainly included ultra-performance liquid chromatography (UPLC) (ExionLC™ AD, //sciex.com.cn/) and tandem mass spectrometry (MS/MS) (QTRAP® 6500+, //sciex.com.cn/).
Liquid phase conditions mainly included: • 1) Chromatographic column: Waters ACQUITY UPLC HSS T3 C18 column (1.8 μm, 100 mm×2.1 mm i.d.); • 2) Mobile phase: phase A, ultrapure water (added with 0.04% acetic acid); phase B, acetonitrile (added with 0.04% acetic acid); • 3) Gradient elution program: 0 min A/B at 95:5 (V/V), 1.0 min A/B at 95:5 (V/V), 8.0 min at 5:95 (V/V), 9.0 min at 5:95 (V/V), 9.1 min at 95:5 (V/V), 12.0 min at 95:5 (V/V); • 4) Flow rate: 0.35 mL/min; column temperature: 40° C.; injection volume: 2 μL.
Electrospray ionization (ESI) ion source temperature was 550° C., the mass spectrometer voltage in the positive ion mode was 5,500 V, the mass spectrometer voltage in the negative ion mode was-4,500 V, and the curtain gas (CUR) was 35 psi. In the Q-Trap 6500+, each ion transition was scanned based on optimized declustering potential (DP) and collision energy (CE).
The quantificative analysis was accomplished using the multiple reaction monitoring mode (MRM, as shown below) of triple quadrupole mass spectrometry. […] And the non-target ion interference was eliminated, so that the quantification was more accurate and reproducible. After obtaining the mass spectrometry data of different samples, the chromatographic peaks of all target substances were integrated and quantitatively analyzed through the standard curve.

**Q.** Which results are given for “PDYKQKLRDSKAWESLETIGIPLDADVM (insect-derived short peptide) [GSS1-PI]”?
**A.** ABA content (24 h treatment): increased significantly; JA content (24 h treatment): increased significantly; ABA content (48 h treatment): upward trend but no significant difference; JA content (48 h treatment): downward trend; SA content (before and after treatment): no significant change
